Measurements reported in publication PMC8102414 (Heliyon, 2021).
In brackets after ≈: the same amount, converted by molar mass. Read-outs that look alike come from different tables or passages of the source.

Key:
[1] = tested on: 3T3-L1 cells; test: in vitro; format: cell-based; conditions: for toxicity to the cells: 3T3-L1 adipocyte cells, glucose consumption assay
[2] = tested on: advanced glycation end products (AGEs); test: Glycation inhibition assay; format: biochemical; conditions: Inactive at >100 μM
[3] = tested on: 3T3-L1 adipocyte cells; test: Glucose consumption assay; format: cell-based; conditions: for Glucose consumption (IC50, μM): induction of glucose consumption, 3T3-L1 adipocyte cells, Inactive at >100 μM; for EC50: Mus musculus, 3T3-L1, read-out: Glucose consumption (IC50, μM)
[4] = tested on: Escherichia coli TISTR 780; test: Antimicrobial MIC, 2-fold serial dilution; conditions: Gram-negative; Escherichia coli (TISTR 780); Inactive at >128 μg/mL
[5] = tested on: Micrococcus luteus DMST 15503; test: Antimicrobial MIC, 2-fold serial dilution; conditions: for MIC (μg/mL) MT: Gram-positive, Micrococcus luteus (DMST 15503), Inactive at >128 μg/mL
[6] = tested on: L6 myotube cells; test: Glucose uptake assay; format: cell-based; conditions: Inactive at >100 μM
[7] = target: α-amylase (Sus scrofa, UniProt P00690); format: biochemical; conditions: Inactive at >100 μM
Sequence of α-amylase (P00690 16-511): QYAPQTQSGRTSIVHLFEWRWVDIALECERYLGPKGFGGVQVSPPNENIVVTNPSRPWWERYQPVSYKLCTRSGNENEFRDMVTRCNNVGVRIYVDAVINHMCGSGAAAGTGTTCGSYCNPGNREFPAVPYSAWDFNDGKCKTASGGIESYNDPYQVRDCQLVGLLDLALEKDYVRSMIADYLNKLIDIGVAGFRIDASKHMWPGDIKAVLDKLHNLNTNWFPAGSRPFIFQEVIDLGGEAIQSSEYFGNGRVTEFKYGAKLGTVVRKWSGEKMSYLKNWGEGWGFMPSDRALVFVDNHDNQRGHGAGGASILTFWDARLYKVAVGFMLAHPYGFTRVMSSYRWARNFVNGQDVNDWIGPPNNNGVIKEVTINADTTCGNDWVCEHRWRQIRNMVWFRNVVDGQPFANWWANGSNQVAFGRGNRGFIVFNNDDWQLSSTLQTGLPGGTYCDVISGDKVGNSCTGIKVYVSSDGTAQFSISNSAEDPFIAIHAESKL

[8] = target: α-glucosidase (Saccharomyces cerevisiae, UniProt P53341); format: biochemical; conditions: Inactive at >100 μM
Sequence of α-glucosidase (P53341 whole entry): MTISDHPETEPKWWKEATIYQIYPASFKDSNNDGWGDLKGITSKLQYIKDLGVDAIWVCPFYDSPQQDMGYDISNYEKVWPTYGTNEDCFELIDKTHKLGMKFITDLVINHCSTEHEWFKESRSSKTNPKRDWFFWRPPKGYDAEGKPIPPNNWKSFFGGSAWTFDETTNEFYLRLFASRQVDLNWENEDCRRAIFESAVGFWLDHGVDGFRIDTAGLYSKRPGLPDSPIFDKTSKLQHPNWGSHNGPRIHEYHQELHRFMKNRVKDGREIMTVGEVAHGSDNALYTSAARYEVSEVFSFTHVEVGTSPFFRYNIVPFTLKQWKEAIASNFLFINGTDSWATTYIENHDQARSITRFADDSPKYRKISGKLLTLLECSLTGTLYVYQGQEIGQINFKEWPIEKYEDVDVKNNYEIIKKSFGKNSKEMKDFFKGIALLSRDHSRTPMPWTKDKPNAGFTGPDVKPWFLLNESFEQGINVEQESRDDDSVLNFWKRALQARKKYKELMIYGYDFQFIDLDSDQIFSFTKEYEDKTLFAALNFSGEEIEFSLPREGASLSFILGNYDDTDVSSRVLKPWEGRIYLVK

[9] = tested on: RAW 264.7 cells; test: in vitro; format: cell-based; conditions: MTT assay
[10] = tested on: Pseudomonas aeruginosa ATCC 10145; test: Antimicrobial MIC, 2-fold serial dilution; conditions: for MIC: Pseudomonas aeruginosa, ATCC10145, read-out: MIC (μg/mL) PA
[11] = tested on: RAW 264.7 cells; test: Nitric oxide production inhibition assay; format: cell-based
[12] = tested on: Candida albicans ATCC 10231; test: Antimicrobial MIC, 2-fold serial dilution; conditions: Fungi; Candida albicans (ATCC 10231); Inactive at >128 μg/mL
[13] = tested on: Streptococcus pyogenes ATCC, 19615; test: Antimicrobial MIC, 2-fold serial dilution; conditions: for MIC (μg/mL) SP: Gram-positive, Streptococcus pyogenes (ATCC, 19615), Inactive at >128 μg/mL
[14] = tested on: Salmonella typhi DMST 22842; test: microbe, parasite or virus in culture; format: cell-based; conditions: Gram-negative; Salmonella typhi (DMST 22842); Inactive at >128 μg/mL
[15] = tested on: methicillin resistant Staphylococcus aureus NPRC 001R; test: Antimicrobial MIC, 2-fold serial dilution; conditions: for MIC (μg/mL) MRSA: Gram-positive, Methicillin Resistant Staphylococcus aureus (NPRC 001R), Inactive at >128 μg/mL
[16] = tested on: Enterococcus faecalis ATCC 29212; test: Antimicrobial MIC, 2-fold serial dilution; conditions: for MIC (μg/mL) EF: Gram-positive, Enterococcus faecalis (ATCC 29212), Inactive at >128 μg/mL
[17] = tested on: Staphylococcus aureus ATCC 25923; test: Antimicrobial MIC, 2-fold serial dilution; conditions: for MIC (μg/mL) SA: Gram-positive, Staphylococcus aureus (ATCC 25923), Inactive at >128 μg/mL
[18] = tested on: Salmonella typhimurium DMST 562; test: Antimicrobial MIC, 2-fold serial dilution; conditions: for MIC (μg/mL) STR: Gram-negative, Salmonella typhimurium (DMST 562), Inactive at >128 μg/mL
[19] = tested on: Shigella flexneri DMST 4423; test: Antimicrobial MIC, 2-fold serial dilution; conditions: for MIC (μg/mL) SF: Gram-negative, Shigella flexneri (DMST 4423), Inactive at >128 μg/mL
[20] = tested on: Gram-positive bacteria and fungi; test: Antimicrobial MIC, summary over Gram-positive bacteria and fungi; conditions: read-out: MIC values against Gram-positive bacteria and fungi
[21] = tested on: S. aureus and MRSA; test: Antibacterial MIC against S. aureus and MRSA; conditions: Staphylococcus aureus, read-out: MIC values against S. aureus and MRSA
[22] = tested on: S. aureus and MRSA; conditions: previous study; ref Innok et al., 2010; cited from earlier work
[23] = in vitro; format: cell-based; conditions: mouse
[24] = in vitro; format: cell-based; conditions: mouse; remark: listed apart in the source
[25] = LPS-stimulated NO production in RAW 264.7 cells, Inactive at >100 μM

| Compound | Glucose consumption (IC50, μM) [3] | MIC (μg/mL) EC [4] | MIC (μg/mL) MT [5] | Cell viability raw 264.7 cells (%) [9] [%] | NO Inhibition (IC50, μM) [11, 25] | MIC (μg/mL) CA [12] | MIC (μg/mL) SP [13] | MIC (μg/mL) ST [14] | MIC (μg/mL) MRSA [15] | MIC (μg/mL) EF [16] | MIC (μg/mL) SA [17] | MIC (μg/mL) STR [18] | MIC (μg/mL) SF [19] | Glycation inhibition (IC50, μM) [2] | MIC [10] [µg/mL] | toxicity to the cells [1] | EC50 [3] [µM] | viability [23] [%] | viability [24] [%] | other results |
| --- | --- | --- | --- | --- | --- | --- | --- | --- | --- | --- | --- | --- | --- | --- | --- | --- | --- | --- | --- | --- |
| 4′-hydroxy-6,3′,5′-triprenylisoflavanone [Compound 24] | Inactive | 128 µg/mL | Inactive | 3.7 ± 0.1 | Inactive | 128 µg/mL | 128 µg/mL | 128 µg/mL | 128 µg/mL | Inactive | 128 µg/mL | Inactive | Inactive |  |  |  |  |  |  | Cell viability of 3T3-L1 cells (%) ([1]; MTT assay): 39.7 ± 0.7%; IC50 ([2]; read-out: Glycation inhibition (IC50)): 40.5 ± 0.37 µM; Glucose uptake (fold) [6]: Inactive; α-Amylase inhibition (IC50, μM) [7]: Inactive; α-Glucosidase inhibition (IC50, μM) [8]: Inactive; MIC (μg/mL) PA ([10]; Gram-negative, Pseudomonas aeruginosa (ATCC 10145), Inactive at >128 μg/mL): 128 µg/mL |
| N=C(N)NN [Aminoguanidine, aminoguanidine, reference compound] |  |  |  | 97.9 ± 0.8 |  |  |  |  |  |  |  |  |  |  |  |  |  |  |  | IC50 ([11]; read-out: NO Inhibition (IC50), LPS-stimulated NO production in RAW 264.7 cells, Inactive at >100 μM): 22.4 ± 0.78 µM |
| COc1ccc2c(c1CC=C(C)C)O[C@H]1c3ccc(O)cc3OC[C@@H]21 [Compound 10, sandwicensin] | Inactive | Inactive |  |  | Inactive |  |  | Inactive |  |  |  |  |  | Inactive | 128 (≈ 378 µM) |  |  |  |  | MIC ([5]; Micrococcus luteus, DMST15503, read-out: MIC (μg/mL) MT): 8 µg/mL (≈ 23.6 µM); MIC [20]: 8 to 64 µg/mL (≈ 23.6 to 189 µM); MIC [21]: 8 to 64 µg/mL (≈ 23.6 to 189 µM); MIC ([13]; Streptococcus pyogenes, read-out: MIC (μg/mL) SP): 8 µg/mL (≈ 23.6 µM); MIC ([15]; Staphylococcus aureus, MRSA, read-out: MIC (μg/mL) MRSA): 8 µg/mL (≈ 23.6 µM); MIC values against S. aureus and MRSA (reported) [22]: 8 to 64 µg/mL; MIC ([16]; Enterococcus faecalis, ATCC29212, read-out: MIC (μg/mL) EF): 8 µg/mL (≈ 23.6 µM); MIC ([17]; Staphylococcus aureus, ATCC25923, read-out: MIC (μg/mL) SA): 64 µg/mL (≈ 189 µM); MIC ([18]; Salmonella enterica, TYPHIMURIUM, read-out: MIC (μg/mL) STR): 128 µg/mL (≈ 378 µM); MIC ([19]; Shigella flexneri, DMST4423, read-out: MIC (μg/mL) SF): 128 µg/mL (≈ 378 µM) |
| COc1c2c(cc3oc(=O)ccc13)OC(C)(C)C=C2 [Compound 26, xanthoxyletin] |  | Inactive | Inactive |  | Inactive | Inactive | Inactive | Inactive | Inactive | Inactive | Inactive | Inactive | Inactive | Inactive | 128 (≈ 496 µM) | without toxicity to the cells | 33.4 ± 0.34 |  |  |  |
| CC1(C)C=Cc2cc(C=O)ccc2O1 [Compound 27, 2,2-dimethyl-2H-chromene-6-carboxaldehyde] |  | Inactive | Inactive |  |  | Inactive | Inactive | Inactive | Inactive | Inactive | Inactive | Inactive | Inactive | Inactive | 128 (≈ 680 µM) | without toxicity to the cells | 29.1 ± 0.86 | 98.2 ± 1.7 | 97.9 ± 1.2 | IC50 ([11]; Mus musculus, RAW264.7, read-out: NO Inhibition (IC50, μM)): 52.5 ± 0.56 µM |
| CN(C)C(=N)N=C(N)N [Metformin, metformin, reference compound] |  |  |  |  |  |  |  |  |  |  |  |  |  |  |  |  | 47.2 ± 1.17 | 96.1 ± 0.9 | 99.4 ± 0.6 |  |
